By melting point is commonly meant the temperature, or range, at which the solid turns liquid.

Each structure is given as a SMILES string. Residues, ends and D or L forms follow the SMILES beside them. *: point of attachment. Cbz = O=C(OCc1ccccc1)*; Bn = c1ccc(C*)cc1

`COC(=O)NC=Cc1ccc(OCC(O)CNC(C)C)cc1` (centres undefined) displayed a melting point of 128 to 129 °C. With `O=C(O)C(F)Oc1ccccc1` (centres undefined) the figure was 61 to 63 °C; with `COc1ccc(C2(C#Cc3cccc(-c4noc(C(F)(F)F)n4)c3)CCCC(=O)C2)cc1OC1CCCC1` (centres undefined), 99 to 100 °C.

The molecule `CC(C)(CO)N1CC(COc2cccc(Cl)c2)OC1=O` (centres undefined) registered a melting point of 81 to 82 °C.

For `O=C(Nc1cc2c(cc1C(=O)c1ccccc1)OCO2)c1ccccc1`, the melting point is 195 to 197 °C. For `CCOc1cc2c(cc1OCC)CCC(C(=O)N1CCN(C(=O)c3cc(OC)c(OC)c(OC)c3)CC1)=C2` the value was 127 to 129 °C; for `OC1CSC(Oc2cccc(-c3cccs3)c2)C(O)C1O` (centres undefined), 165 to 166 °C; for `Cc1nc2c(N)nc3ccccc3c2n1CCCCNC(=O)C1CCCCC1`, 192 to 193 °C. `Cc1ccc(-c2cc(N3CCC(C(N)=O)CC3)c3ccccc3n2)cc1` registered a melting point of 230 to 232 °C.

As for `C#CCOCC1CCC(COCC#C)CC1` (centres undefined), the melting point is 56 to 60 °C. Regarding `O=C1c2ccccc2C(=O)N1CC(Cc1ccc([N+](=O)[O-])cc1)=NO`, the melting point lay in the range of 181 to 183 °C.

As for `CCc1cc(C=O)c2ccc3cccc4ccc1c2c34`, the melting point was 134 to 136 °C. With `Nc1ncccc1-c1nc2ccc(-c3ccncc3)nc2n1-c1ccc(CNC(=O)c2ccccc2)cc1` the figure was 231 to 233 °C; with `O=c1c(Br)c(OCc2ccccc2C(F)(F)F)ccn1Cc1ccccc1`, 133 to 134 °C. For `CCOC(=O)c1cnn(-c2cc(C(=O)Nc3cc(C(C)(C)C)cc(NS(C)(=O)=O)c3OC)ccc2C)c1` the value was 125 to 130 °C; for `CCCc1nn(C)c2c(=O)[nH]c(-c3cc(CCC(=O)O)ccc3OCC)nc12`, 165 to 167 °C; for `COc1ccc(C)c2nc(Cc3ccc(Cl)cc3)[nH]c12`, 195 to 197 °C. For `O=C(Cc1ccc(-c2ccccc2)cc1)NCCc1ccc(OCc2ccccc2)c(OCc2ccccc2)c1` the value was 142 to 144 °C; for `O=[N+]([O-])c1ccccc1Sc1ccc(Cl)cc1`, 91 to 93 °C. For the molecule `CCn1c(=O)c2c(nc(/C=C/c3cccc(O)c3)n2C)n(CC)c1=O`, the melting point was in the range of 250 to 251 °C.

`O=C(N[C@@H](Cc1ccc(OCc2ccsc2)cc1)C(=O)O)c1cn2cc(-c3ccc(Cl)cc3)ccc2n1` returned a melting point of 203 °C.

For the molecule `COC(=O)c1ccc(N2CCC[C@H](N(Cc3cc(C(F)(F)F)cc(C(F)(F)F)c3)c3nnn(C)n3)c3cc(C)c(C(F)(F)F)cc32)cc1`, the melting point fell in the range of 101 to 105 °C. The molecule `C=C(C)C(=O)NCCNC(=O)CCl` returned a melting point of 126 to 128 °C. In turn, `CCc1c(Sc2ccccc2)[nH]c(=O)[nH]c1=O` showed a melting point of 218 to 219 °C. With `CCNc1c(OC)cc(C(=O)CS(C)(=O)=O)cc1OC` the figure was 129 to 130 °C; with `O=Cc1cn(-c2ccccc2)nc1OCc1ccccc1`, 153 to 154 °C. For `O=C(Nc1ccccc1C(=O)O)c1nnc(S)o1` the value was 236 to 237 °C. On to `C=CCN(CC=C)c1nc(NC2CC(C)(C)NC(C)(C)C2)nc(NC(C)(C)CC(C)(C)C)n1`, for which the melting point stood at 180 °C. With `O=C(Nc1ccccc1)N(Cc1ccc(Cl)cc1)C1CC2CCC1C2` (centres undefined) the figure was 111 to 113 °C. For `CCCCCCCCCCCC1OC1C(=O)O` (centres undefined) the value was 76 to 77 °C.

Molecule `O=C1C(=O)c2ccc(-c3ccncc3)cc2C2=C1SCC1(CCNCC1)O2` came in with a melting point of 223 to 228 °C. The molecule `N#CC(Cc1c[nH]cn1)(c1ccc(Cl)cc1)c1ccc(Cl)cc1` had a melting point of 152 to 153 °C. With `CC(=O)Nc1nc(CCc2ccc(C(=O)NC(=N)N)cc2)c(Cc2ccc(S(C)(=O)=O)cc2)s1`, the melting point lay within 108 to 110 °C. For `Nc1c(C#Cc2ccccc2)cnnc1C1CN2CCNC1CC2` (centres undefined) the value was 182 to 183 °C. For `CN1C(O)=C(C(=O)Nc2ccccc2Cl)c2cscc2S1(=O)=O` the value was 152 to 155 °C; for `O=C(NCCCCN1CCN(c2csc3cc(F)ccc23)CC1)c1ccc(F)cc1`, 161 to 163 °C; for `O=c1c(-c2cccc(C(F)(F)F)c2)coc2cc(O)c(O)cc12`, 274 to 275 °C.

The molecule `NS(=O)(=O)c1cnc(-c2cccs2)s1` returned a melting point of 134 to 136 °C. Regarding `Cc1cc(C)cc(C(=O)Cc2ccnc(N)c2)c1`, the melting point lay in the range of 123 to 126 °C.

`CCn1cc(C(=O)O)c(=O)c2cc(F)c(N3CCN(C)CC3)nc21` had a melting point of 228 to 230 °C. `CC(=O)Nc1ccc2c(c1)[C@@H](O)[C@H](Br)C(C)(C)O2` (relative stereo) registered a melting point of 170 °C.

`COc1ccc(-c2nn(Cc3ccccc3)c(=O)cc2-c2ccc(Cl)cc2)cc1` yielded a melting point of 165 to 167 °C. Take `N=C(Nc1ccc2c(c1)CN1CCOCC1C2)c1cccs1` (centres undefined): the melting point is 190 to 194 °C.

Consider `N=C(Nc1ccc2c(c1)C1CCCN1CC2)c1cccs1` (centres undefined), for which the melting point lay within 193 to 196 °C. Regarding `COc1cc(C(=O)COC(C)=O)ccc1OCCCCl`, the melting point fell in the range of 93 to 96 °C. `Cc1nc(-c2noc(Cc3ccccc3)n2)sc1C(=O)NCc1ccccc1` gave a melting point of 124 to 125 °C. For `NC(=O)Cc1ccc(-c2nc3ccccc3o2)cc1` the value was 251 to 255 °C; for `Cc1nc2ccc(NC(=O)CC34CC5CC(CC(C5)C3)C4)cc2s1`, 172 °C. For `CNC(=O)ON=C1CCOc2ccccc21` the value was 123 to 126 °C; for `O=CNc1cccc2ccccc12`, 134 to 135 °C.

`CSc1nsc(NC(=O)Oc2ccccc2)c1C#N` displayed a melting point of 244 to 245 °C. In turn, `CCCCCCCCCCC[C@H](O)C[C@@H]1OC(=O)[C@H]1CCCCCC` had a melting point of 61 to 62 °C. With `COc1ccc(C(N)CCO)cc1OC` (centres undefined) the figure was 63.5 to 65.5 °C; with `N#Cc1cnc2c(c1)N(Cc1cc(Cl)ccc1Cl)CCN2`, 221 to 222 °C. `O=C1NC(=O)C(=Cc2ccc(OC3CCN(c4ccccn4)CC3)cc2)S1` displayed a melting point of 218 to 220 °C. With `O=C1c2cccc(N3CCCC3)c2OC12CC2` the figure was 102 °C; with `CCNC(=O)C(COCc1ccccc1)NC(=O)C(Cc1ccc(OCc2ccccc2)cc1)NC(=O)C(Cc1c[nH]cn1)NC(=O)OCc1ccccc1` (stereo not drawn) (Cbz-His-Tyr(Bn)-Ser(Bn)-NHEt; configuration not given here), 182 to 188 °C. For `CS(=O)(=O)N[C@@H]1CCCC[C@H]1OCC(=O)O` (relative stereo), the melting point lay in the range of 119 to 121 °C. `Nc1nc(Cl)cc(OC(F)F)n1` had a melting point of 118 to 119 °C. The molecule `CCOC(=O)c1ccc(COc2ccc3c(c2)C(C)(C)CCC3(C)C)cc1` had a melting point of 76 to 77 °C.

As for `CCOC(=O)C(Oc1ccc(Cl)cc1)C(=O)OCC`, the melting point lay within 43.5 to 45 °C. With `COC(=O)c1ccc(-c2ccc(OC)c(OC3CCCC3)c2)cc1` the figure was 128 to 131 °C; with `CC(N=c1cccccc1NC(C)c1ccccc1)c1ccccc1` (centres undefined), 74 °C. For `COc1ccc(CNC(=O)C23CC4CC(CC(C4)C2)C3)cc1OC` the value was 120 to 122 °C; for `COC(=O)CCc1oc(=O)[nH]c1-c1ccc(C(F)(F)F)cc1`, 156 to 157 °C. For `N#Cc1cnc2c(c1Cl)C=C1N=CN=C1C2` the value was greater than 300 °C; for `O=C(CCCCC(=O)NCC1Cc2c1ccc(OCc1ccccc1)c2OCc1ccccc1)NCCc1ccccc1` (centres undefined), 152 to 155 °C.

Take `Cc1cc(C(C)C)cc(C)c1CCl`: the melting point lay in the range of 63 to 65 °C.

As to `CN1C(=O)CC[C@]2(C)c3ccc(C=Cc4ccccc4)cc3CC[C@@H]12`, the melting point was in the range of 173 to 175 °C. For `CCCc1cn(C)c2c(=O)[nH]c(-c3cc(S(=O)(=O)N4CCN(CCCOC(=O)[C@@H](NC(=O)OC(C)(C)C)C(C)C)CC4)ccc3OCC)nc12` the value was 132 to 134 °C; for `CCNc1cccnc1N1CCN(C(=O)c2ccc(C(=O)NC(C)(C)CO)cn2)CC1`, 128 to 130 °C. With `Cc1cc(SC(C)C)c(NC(=O)CCCCCSc2nc3ccccc3s2)c(SC(C)C)n1` the figure was 84 to 86 °C; with `CC(C)(C)OC(=O)c1nc(-c2ccc(Cl)cc2Cl)n(-c2ccc(Cl)cc2)c1C#N`, 210 to 212 °C; with `CCCCCn1c2ccccc2c2cc(C(=O)NCC(C)(C)C)ncc21`, 91 to 92 °C. For `O=c1[nH]c2ccccc2c(=O)cc1N(CCO)CCO` the value was 204 to 205 °C.

In turn, `C=C1CC2C3CCC4=CC(=O)CCC4(C)C3=CCC2(C)C1(O)C(C)=O` (centres undefined) had a melting point of 147 to 162 °C. For `O=C(NOC1CCCCO1)c1ccc(-c2ccc3ncnc(Nc4ccc(OCc5cccc(F)c5)c(Cl)c4)c3c2)o1` (centres undefined) the value was 221 °C; for `COC(=O)c1ccc(-c2ccc(-c3ccccc3)c(-c3ccc4c(c3)C(C)(C)CCC4(C)C)c2)cc1C`, 130 to 132 °C.

`C[C@@H](CO)n1cc(C(=O)O)c(=O)c2cc(F)c(N3CCN(C)CC3)c(F)c21`: the melting point is 250 to 255 °C. With `CC(C)(C(=O)c1ccc(SCCO)cc1)N1CCOCC1` the figure was 62 to 64 °C. With `CP(=O)(O)CCC(=O)Nc1c(Br)cc(Br)cc1Br` the figure was 248 °C; with `O=C1Cc2cccc3c2N1CCC3`, 90 to 93 °C; with `NC1=NN(c2cccc(Cl)n2)C(c2ccccc2)C1` (centres undefined), 188 °C. Molecule `CCCCc1nn2c(C)cccc2c1Cc1ccc(Br)cc1` displayed a melting point of 54 °C. For `CN1CCC[C@H]1Cc1cc2cccnc2[nH]1`, the melting point is 130 to 131 °C. For `Cc1[nH]c(=O)c(C(F)(F)C(F)(F)F)c2c1CC(c1ccncc1)CC2` (centres undefined) the value was 265 to 300 °C; for `CN1CCC(=C2c3cc(Br)ccc3CC(=O)c3sccc32)CC1`, 172 to 173 °C; for `CCCN1CCN(c2nc(C)c(C(=O)NCc3cccnc3)s2)C1=O`, 109 to 111 °C.

As for `Cc1ccc(C)c(OCCCC(C)(C)C(=O)Nc2cccc(C3=NCCCO3)c2)c1`, the melting point was in the range of 114 to 115 °C.
